# Assays:
# Format in all cases: in vitro ADME
# [1] = test system: recombinant human UGT1A7, 1A10, and UGT1A8; test: Glucuronidation by recombinant human UGTs; details: incubation with recombinant human UGT1A7, 1A10 and UGT1A8
# [2] = molecular target: T1, CYP 2A6 (liver microsomes) (Homo sapiens, UniProt P11509); test: Inhibition of hepatic microsome-catalyzed CYP oxidation; details: CYP 2A6, substrate coumarin, read-out: Microsomal IC50 (µM) with 95% Confidence Intervals
# T1 construct: from tissue; host or cells: human liver microsomes
# T1 sequence (P11509 1-494): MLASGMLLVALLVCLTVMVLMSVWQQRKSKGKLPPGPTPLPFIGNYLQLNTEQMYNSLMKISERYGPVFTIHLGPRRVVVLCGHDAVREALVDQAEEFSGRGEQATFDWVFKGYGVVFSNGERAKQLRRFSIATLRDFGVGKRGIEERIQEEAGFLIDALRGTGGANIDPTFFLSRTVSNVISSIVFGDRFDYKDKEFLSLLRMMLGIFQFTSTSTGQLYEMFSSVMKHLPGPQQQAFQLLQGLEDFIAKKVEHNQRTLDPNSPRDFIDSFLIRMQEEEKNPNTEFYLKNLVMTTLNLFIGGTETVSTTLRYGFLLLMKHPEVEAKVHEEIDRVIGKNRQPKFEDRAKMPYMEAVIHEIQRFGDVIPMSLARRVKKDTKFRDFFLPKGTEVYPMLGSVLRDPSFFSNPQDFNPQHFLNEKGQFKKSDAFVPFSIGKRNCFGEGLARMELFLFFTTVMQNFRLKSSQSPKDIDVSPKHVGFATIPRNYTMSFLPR
# Method: (§1) Incubations were carried out in a total volume of 100 µl of 100 mM Tris-HCl buffer (pH 7.4) in all black, flat-bottom Costar 96-well plates (Corning Incorporated, Corning, NY, USA). […] The samples were then preincubated at 37 °C for 10 min. The reactions were initiated by the addition of NADPH, and 0–10 µM 7-hydroxycoumarin was used as the standard. The fluorescent signal was measured with a Victor^2 1420 multilabel plate counter (PerkinElmer Lifesciences Wallac, Turku, Finland) with excitation and emission wavelengths of 405 and 460 nm, respectively. Fluorescence was monitored every 2 min for 40 min from where the concentration was calculated at the various time points. From these, oxidation rates (µM/min) and the relative remaining activity of the sample at different concentrations were calculated. The data were fit to sigmoidal dose-response curves with nonlinear regression, and IC50 values (the concentration at which the sample reduced the metabolism of the CYP substrate by 50%) were determined. […] This was analyzed using nonlinear equations in Graph Pad Prism, which produced IC50 values and its 95% confidence interval as the results.
# [3] = molecular target: T2, CYP 3A4 (liver microsomes) (Homo sapiens, UniProt P08684); test: as above; details: CYP 3A4, substrate OCA369, liver microsomes; read-out: Microsomal IC50 (µM) with 95% Confidence Intervals
# T2 construct: from tissue; host or cells: human liver microsomes
# T2 sequence (P08684 whole entry): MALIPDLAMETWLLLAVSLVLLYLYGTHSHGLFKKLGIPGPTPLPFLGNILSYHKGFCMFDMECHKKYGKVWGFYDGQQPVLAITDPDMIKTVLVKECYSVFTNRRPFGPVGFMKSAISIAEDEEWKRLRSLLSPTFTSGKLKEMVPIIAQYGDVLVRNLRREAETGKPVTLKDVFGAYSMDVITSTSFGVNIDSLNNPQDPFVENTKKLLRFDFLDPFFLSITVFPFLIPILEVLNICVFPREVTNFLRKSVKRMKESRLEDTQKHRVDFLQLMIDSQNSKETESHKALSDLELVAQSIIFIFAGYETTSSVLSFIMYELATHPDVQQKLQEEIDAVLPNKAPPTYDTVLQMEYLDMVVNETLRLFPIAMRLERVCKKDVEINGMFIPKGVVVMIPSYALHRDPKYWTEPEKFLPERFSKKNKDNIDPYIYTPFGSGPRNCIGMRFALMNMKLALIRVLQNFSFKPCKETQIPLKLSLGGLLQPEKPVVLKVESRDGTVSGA
# Method: as §1
smiles,measurement,setting,value
C[C@@H]1O[C@@H](O[C@@H]2[C@@H](O)[C@H](OCCc3ccc(O)c(O)c3)O[C@H](CO)[C@H]2OC(=O)/C=C/c2ccc(O)c(O)c2)[C@H](O)[C@H](O)[C@H]1O [Verbascoside],Metabolites formed,[1],low levels of glucuronide metabolites
same,IC50,[2],135 µM
same,IC50,[3],76 µM

# From paper PMC6600574 (Molecules, 2019)
